The text below walks through data of US20260284018A1, “DUAL INHIBITORS OF DYRK1A AND 5-HT2 FOR TREATING A BRAIN DISORDER” (THE REGENTS OF THE UNIVERSITY OF CALIFORNIA, priority 2023, published 2026).

The experiment relates to phospho-Tau. The experiment in a line: Phospho-Tau assay using cultured rat cortical neurons (okadaic acid insult). To be noted: pretreatment, 30 nM okadaic acid, rat cortical cultures, FIG. 14 and 15B. In kind it is cell-based. The protocol: Phospho-Tau Assay Using Cultured Rat Cortical Neurons. Primary cortical cell cultures were prepared as described previously.^2 Briefly, pregnant Sprague Dawley dams were euthanized at embryonic day 18 (E18), and the cortices of the pups were harvested. Cells were plated on poly-d-lysine coated plates at 15,000 cells per well. Cultures were maintained at 37° C. under an atmosphere containing 5% CO2. Plating media consisted of 10% heat-inactivated fetal bovine serum (FBS; Fisher) 1% penicillin-streptomycin (Fisher), and 0.5 mM glutamine (Life Technologies) in Neurobasal (Fisher). After 16-24 h, media was exchanged for replacement media consisting of IX B27 supplement (Fisher), 1% penicillin-streptomycin, 0.5 mM glutamine, and 12.5 μM glutamate in Neurobasal. On DIV6 and DIV13, 50% of media was removed, and feeding media containing 1×B27 supplement, 1% penicillin-streptomycin, 0.5 mM glutamine in Neurobasal was added with an additional 20% volume added to account for evaporation. On DIV14, the volume of each well was adjusted to 180 μL. Next, 1000× solutions of compounds in DMSO were diluted 1:100 into Neurobasal and 20 μL of the resulting solutions was added to the appropriate wells (total dilution=1:1000, 0.1% DMSO). For wells that were not treated with compounds, DMSO was diluted 1:100 into Neurobasal and 20 μL of the resulting solution was added to the appropriate wells. All treatments were randomized. After 24 h, 20 μL was removed from each well. […] After 1 h, neurons were fixed by removing 80% of the media and replacing it with a volume of 4% aqueous paraformaldehyde (ThermoFisher) equal to 50% of the working volume of the well. Then, the cells were incubated at room temperature for 15 min before the fixative was aspirated and each well was washed twice with DPBS. Cells were permeabilized using 0.2% Triton X-100 (ThermoFisher) in DPBS for 15 min at room temperature without shaking. Plates were blocked with blocking buffer (2% bovine serum albumin and […] in DPBS) overnight at 4° C. Then, plates were incubated overnight at 4° C. with gentle shaking in antibody dilution buffer (ADB) (1% bovine serum albumin and […] in DBPS) containing a chicken anti-MAP2 antibody (1:10,000; EnCor, CPCA-MAP2), guinea pig anti-Tau antibody (1:1000; Synaptic Systems), mouse anti-phosphoTau (Ser202/Thr205) antibody (1:1000; Invitrogen), and rabbit anti-phosphoTau (Ser396) antibody (1:1000; Invitrogen). Plates were washed twice with DPBS and once with ADB before being incubated for 1 h at room temperature in ADB containing an anti-chicken IgY secondary antibody conjugated to Alexa Fluor™ Plus 800 (1:1000; Invitrogen), an anti-mouse IgG secondary antibody conjugated to Alexa Fluor™ Plus 680 (1:1000; Invitrogen), an anti-guinea pig IgG secondary antibody conjugated to Alexa Fluor™ 596 (1:1000; Invitrogen), and an anti-rabbit IgG secondary antibody conjugated to Alexa Fluor™ Plus 488 (1:1000; Invitrogen). Plates were washed three times with DBPS, and after the final wash, 100 μL of DPBS was added per well before imaging on a CellInsight™ CX7 High Content Analysis imager at 20× with 12 ROIs taken per well with no bias to location and no overlap of the ROIs. Images were analyzed using Cellnomics Scan software (version 6.6.2). The compartmental analysis assay was used to measure the average intensity of each channel per field and determine the reported intensity ratios.

For `CN(C)CCn1ccc2ccccc21` [isoDMT, reference compound], the “hyperphosphorylation of Tau (pTau accumulation) induced by okadaic acid” value is given as “does not”.
